Results from patent US12053506B2, “Romo1-derived antimicrobial peptides and variants thereof” (priority 2019, dated 2024).
No end group written: not given here.

Columns and labels:
mouse red blood cells = type: cell-based
Description: Red blood cells were diluted with PBS, centrifuged 3 times at 900 g for 10 minutes, and washed. 100 μl of the diluted red blood cell solution (10% v/v PBS) was dispensed into each well of a 96-well microplate, and KU-5878, KU-5878-K4, KU-5878-K4-D, melittin, magainin 2 or daptomycin was added to each well which was then filled with PBS to 200 μl, followed by reaction by incubation at 37° C. for 1 hour. Then, the supernatant of the reaction solution was separated, and the absorbance at a wavelength of 550 nm was measured using a spectrophotometer. As control, PBS and 0.1% Triton X-100 (Triton X-100) solution were used.
Based on the results of measurement of the absorbance, the degree of red blood cell destruction was calculated according to Equation 1 below, and the results of the calculation are shown in FIG. 6. The % intact RBC=100(%)−[(absorbance of peptide-treated red blood cell solution−absorbance of PBS-treated red blood cell solution)/(absorbance of Triton X-100-treated red blood cell solution−absorbance of PBS-treated red blood cell solution)×100(%)] [Equation 1]

[1] = system: Staphylococcus aureus, Pseudomonas aeruginosa, methicillin-resistant Staphylococcus aureus and multidrug-resistant Pseudomonas aeruginosa; assay: Bacteria remaining in the blood of intravenously infected mice; type: in vivo, mice (C57BL/6); details: 10 mg/kg intravenous 1 hour after infection; blood collected 40 minutes after injection; compared with LL-37, magainin 2, daptomycin
Description: Specifically, Staphylococcus aureus, Pseudomonas aeruginosa, methicillin-resistant Staphylococcus aureus and multidrug-resistant Pseudomonas aeruginosa was cultured in 3% (w/v) TSB liquid medium at 37° C. and 200 rpm for 4 hours, and then further cultured under the same conditions for 3 hours to a concentration of 5×10^9 CFU/ml. Strain solutions were prepared by diluting each of the further cultured strains with PBS solution to a final concentration of 1×10^5 CFU/μl.
Next, 100 μl of each strain solution was injected intravenously (IV) into the tail vein of each of 10-week-old male mice (C57BL/6). After one hour, KU-5878 was intravenously injected at a concentration of 10 mg/kg. As a control, PBS was intravenously injected at a concentration of 10 mg/kg, and as a positive control, LL-37, magainin 2, or daptomycin was intravenously injected at a concentration of 10 mg/kg.
40 minutes after the intravenous injection of each drug, about 1 cm from the tail end of each mouse was cut using surgical scissors, and 10 μl of the blood at the end of the cut was collected and diluted in PBS. The diluted blood sample was plated on a previously prepared TSB agar plate and incubated in an incubator at 37° C. for 18 hours, and the formed colonies were counted for comparison.

[2] = system: multidrug-resistant Pseudomonas aeruginosa; details: 4 h
Description: First, each of Pseudomonas aeruginosa (ATCC 27853) and Staphylococcus aureus (ATCC 29213) was cultured in 3% (w/v) TSB (Tryptic Soy Broth) liquid medium at 37° C. and 200 rpm for 4 hours, and then further cultured under the same conditions for 3 hours to a concentration of 5×10^6 CFU/ml. Strain solutions were prepared by diluting each of the further cultured strains with SP (sodium phosphate; 10 mM sodium phosphate, 1% TSB) buffer to a final concentration of 2×10^5 CFU/ml.
(§1) Then, each peptide at varying concentrations (0 μg/ml to 300 μg/ml) was dispensed into each well of a 96-well microplate, and 100 μl (1×10^5 CFU/ml) of each of the prepared strain solutions was added thereto, mixed therewith, and allowed to react with the peptide in an incubator at 37° C. for 1 hour.
In addition, 30 g/L of TS (tryptic soy) and 15 g/L of agar were dissolved in distilled water and sterilized, and then 25 ml of the solution was poured onto a 100 mm round plate and solidified at room temperature for one day or more, thereby preparing a TS agar plate. 10 μl of each reaction solution of the peptide and the strain was plated on the TS agar plate at a constant size, and incubated in an incubator at 37° C. for 18 hours, and then colony formation on the plate was checked.
Specifically, each type of bacteria was cultured in 3% (w/v) TSB (Tryptic Soy Broth) liquid medium at 37° C. and 200 rpm for 4 hours, and then further cultured under the same conditions for 3 hours to a concentration of 5×10^6 CFU/ml. Strain solutions were prepared by diluting each of the […] of 2×10^5 CFU/ml.
as §1, with “Then, the KU-5878” for “Then, each”
In addition, 10 μl of each reaction solution of the peptide and the strain was plated on the TS agar plate at a constant size, and incubated in an incubator at 37° C. for 18 hours, and then colony formation on the plate was checked.
Meanwhile, the multidrug-resistant Pseudomonas aeruginosa, multidrug-resistant Acinetobacter and multidrug-resistant Klebsiella in Table 2 below were bacteria isolated from patients at Korea University Anam Hospital. […] Then, these bacteria were used in the experiment.

KTMMQSGGTFGTFMAIGMGIR [KU-5878]
hemolysis of red blood cells (mouse red blood cells): little hemolysis even at a high concentration
number of bacteria remaining in the blood vessels of the mice [1]: most greatly decreased
MBC value (μg/ml) against multidrug-resistant Pseudomonas aeruginosa [2]: 110 µg/mL
